Reference: patent US20030154517A1, “Efficiency agrobacterium-mediated wheat transformation method” (priority 2001, published 2003)
Values joined by “and” are separate entries in the source; they are usually repeats but may differ in a detail not shown here. Equal entries are not always repeated. Where two headings read alike, the source gives them in different places.

What was measured:
[1] = tested on: immature embryos of wheat; assay: Agrobacterium-mediated wheat transformation, nptII (G418/kanamycin) selection (transformation efficiency); type: cell-based, Triticum aestivum L
Source text: Immature embryos of wheat (Triticum aestivum L) cv Bobwhite were isolated from the immature caryopsis (wheat spikelets) 12-15 days after pollination, and cultured on CM4C (Table 2) for 1-8 days, most typically for 4-6. The embryos without embryogenic callus were selected for Agrobacterium inoculation.
A disarmed Agrobacterium strain C58 (ABI) harboring a binary vector was used for all the experiments. […] The Agrobacterium cells were resuspended in the inoculation medium and the density was adjusted to an OD660 of 1. […] An equal amount of the Agrobacterium cell suspension was added such that the final concentration of Agrobacterium cells was an OD660 of 0.5. In most experiments, pluronic F68 was added to the inoculation mixture at a final concentration of 0.01%. The ratio between the Agrobacterium and immature embryos (IEs) was about 10 mL: 20-200 IEs. The conditions for inoculation were temperatures from about 23° C.-26° C. with a duration from about 5-60 minutes.
After the inoculation period, the remaining Agrobacterium cells were removed from the explants by using the in-house vacuum equipment. A piece of sterile Whatman No. 1 filter paper (to fit the size of the petri plate) was placed in each of 60×15 or 60×20 mm petri dishes without additional liquid or agar-supplemented media. Two hundred microliters of sterile water was placed in the middle of the filter paper. After 2-3 minutes, the inoculated immature embryos were placed in the plates. Usually, 20-50 explants are grouped as one stack (about 1 cm in size and 60-80 mg/stack), with 4-5 stacks on each plate. The plates were immediately parafilmed and then co-cultivated in the dark at 24° C.-26° C. for 2-3 days.
For nptII selection, immature embryos were isolated, precultured, inoculated, and co-cultured as previously described. After the 3-day co-culture, embryos were transferred to delay culture (solid CM4C2D) media (CM4C media as in Table 2 with 2 mg/L 2,4-D) with 500 mg/L carbenicillin for 7 days in the dark at 25° C. Selection was done in liquid CM4C media (as in Table 2 without the Phytagel) with 100 mg/L carbenicillin and 20 mg/L G418 on a support for 7 days in the dark followed by 7 days in the light (16 hr photoperiod), at 25° C. The calli were then transferred to liquid MMS0.2C media (as in Table 2 without the gelling agent) with 100 mg/L carbenicillin and 25 mg/L G418 on a support for 2 weeks at 25° C. with a 16 hr photoperiod. After 2 weeks, the calli were transferred to liquid MMSOC media (as in Table 2 without the gelling agent) with 100 mg/L carbenicillin and 25 mg/L G418 on a support for 2 to 4 weeks at 25° C. with a 16 hr photoperiod. Plantlets were transferred to solid MMSOC media with 100 mg/L carbenicillin and 25 mg/L G418 in sundae cups for 1 to 4 weeks at 25° C. with a 16 hr photoperiod.

wheat callus cultures = settings: for 1 shoot/callus / 2 shoots/callus / 3 shoots/callus / 4 shoots/callus / Regenerable callus, # / Regenerable callus, % / Shoots, #: no glyphosate; for Shoots, #: two experiments
Procedure: Five treatments were done: 1) control (0.1 μM Cu as in MS medium) without additional copper; 2) 2 μM copper, applied at delay and selection for 2 weeks total; 3) 2 μM Cu at 1st regeneration for 2 weeks; 4) 2 μM Cu at 2nd regeneration for 2 or more weeks; and 5) 2 μM Cu constantly present at all of these stages.

[2] = tested on: immature embryos of wheat (Triticum aestivum L) cv Bobwhite; assay: Agrobacterium-mediated wheat transformation, glyphosate selection (transformation efficiency); type: cell-based; settings: for Over all % TE / Total Ind. Events: six experiments; for Transgenic #: Expt. 309 and Expt. 314
[3] = 2 μM Cu at 2nd Reg. (MMS0C), 2 w.
[4] = Table 16: 250 μM CuSO4 in MMS0C
[5] = Table 16: 500 μM CuSO4 in MMS0C
[6] = Table 16: 750 μM CuSO4 in MMS0C
[7] = Table 16: 1000 μM CuSO4 in MMS0C
[8] = Table 16: 1500 μM CuSO4 in MMS0C
[9] = Table 16: 2000 μM CuSO4 in MMS0C
[10] = Table 16: 3000 μM CuSO4 in MMS0C

O=S(=O)([O-])[O-].[Cu+2] [CuSO4, copper sulfate]
Independent transgenic events/explants [1]: 37/220 and 63/228 and 48/211 and 46/275 and 53/225
% TE ([1]; 2 μM copper sulfate in MMSOC, nptII liquid system, per experiment and Totals, listed as Copper sulfate): 3.72% and 2.16% and 0.57% and 9.43% and 9.14% and 4.51% and 1.56%
% TE ([1]; 2 μM copper sulfate in MMSOC, nptII liquid system, per experiment and Totals, listed as copper): 4.5%
% TE ([1]; 20 μM copper sulfate in MMSOC, nptII liquid system, per experiment and Totals): 7.2%
% TE ([1]; Table 19: compound at 2 μM in second regeneration stage (MMSOC media)): 16.8%
% TE ([1]; Table 19: compound at 20 μM in second regeneration stage (MMSOC media)): 27.6% and 30.6% and 22.7% and 16.7% and 23.6%
% TE ([1]; Table 19: compound at 20 μM in second regeneration stage (MMSOC media), listed as copper sulfate): 27.6% and 16.7% and 22.7%
1 shoot/callus (wheat callus cultures; 2 μM Cu at 1st Reg., 2 w.): 11.8
2 shoots/callus (wheat callus cultures; 2 μM Cu at 1st Reg., 2 w.): 9.3
3 shoots/callus (wheat callus cultures; 2 μM Cu at 1st Reg., 2 w.): 3.3
4 shoots/callus (wheat callus cultures; 2 μM Cu at 1st Reg., 2 w.): 1.3
Regenerable callus, # (wheat callus cultures; 2 μM Cu at 1st Reg., 2 w.): 30.5
Regenerable callus, % (wheat callus cultures; 2 μM Cu at 1st Reg., 2 w.): 61%
Shoots, # (wheat callus cultures; 2 μM Cu at 1st Reg., 2 w.): 44
effect on regeneration (wheat callus cultures; 2 μM Cu at 1st regeneration stage): very little or no effect
Regenerable callus, # (wheat callus cultures; [3]): 40
Regenerable callus, % (wheat callus cultures; [3]): 80%
Shoots, # (wheat callus cultures; [3]): 80.5
2 shoots/callus (wheat callus cultures; 2 μM Cu at 2nd Reg., 2 w.): 12.5
3 shoots/callus (wheat callus cultures; 2 μM Cu at 2nd Reg., 2 w.): 9.8
4 shoots/callus (wheat callus cultures; 2 μM Cu at 2nd Reg., 2 w.): 4.3
effect on regeneration (wheat callus cultures; 2 μM Cu at 2nd regeneration stage): most significant increase in regeneration
1 shoot/callus (wheat callus cultures; 2 μM Cu at Delay/Sel., 2 w.): 14.3
2 shoots/callus (wheat callus cultures; 2 μM Cu at Delay/Sel., 2 w.): 8.5
3 shoots/callus (wheat callus cultures; 2 μM Cu at Delay/Sel., 2 w.): 7.8
4 shoots/callus (wheat callus cultures; 2 μM Cu at Delay/Sel., 2 w.): 0.5
Regenerable callus, # (wheat callus cultures; 2 μM Cu at Delay/Sel., 2 w.): 35.6
Regenerable callus, % (wheat callus cultures; 2 μM Cu at Delay/Sel., 2 w.): 71%
Shoots, # (wheat callus cultures; 2 μM Cu at Delay/Sel., 2 w.): 57.5
1 shoot/callus (wheat callus cultures; 2 μM Cu at all stages, 6 w.): 9
2 shoots/callus (wheat callus cultures; 2 μM Cu at all stages, 6 w.): 11.5
3 shoots/callus (wheat callus cultures; 2 μM Cu at all stages, 6 w.): 2.5
4 shoots/callus (wheat callus cultures; 2 μM Cu at all stages, 6 w.): 0.5
Regenerable callus, # (wheat callus cultures; 2 μM Cu at all stages, 6 w.): 30.5
Regenerable callus, % (wheat callus cultures; 2 μM Cu at all stages, 6 w.): 61%
Shoots, # (wheat callus cultures; 2 μM Cu at all stages, 6 w.): 37
effect on regeneration (wheat callus cultures; 2 μM Cu at delay and selection stage): Some improvement
effect on regeneration (wheat callus cultures; 2 μM Cu present at all stages): No improvement
improvement in TE (×) ([2]; 1.0 μM copper sulfate in MMS0C, experiment 309): 2.5 ×
improvement in TE (×) ([2]; 1.0 μM copper sulfate in MMS0C, experiment 314): ~4 ×
improvement in TE (×) ([2]; 2.0 μM copper sulfate in MMS0C, experiment 309): 3.5 ×
improvement in TE (×) ([2]; 2.0 μM copper sulfate in MMS0C, experiment 314): ~10 ×
TE % ([2]; CuSO4 2 μM, initial 14 days (2 weeks) of last regeneration stage (MMS0C), per experiment and Total/average of twelve, listed as Cu): 16.6%
% TE ([2]; Table 14: 2 μM Cu in MMS0C, per experiment and Total, listed as Cu): 11.4% and 15.1% and 9.4%
% TE ([2]; Table 14: 20 μM Cu in MMS0C, per experiment and Total, listed as Cu): 17.4% and 20.3% and 15.9%
Over all % TE ([2]; Table 15: 20 μM CuSO4 in MMS0C): 17.6%
Total Ind. Events ([2]; Table 15: 20 μM CuSO4 in MMS0C): 103
% TE ([2]; Table 15: 40 μM CuSO4 in MMS0C, experiments 292, 293, 295, 296, 297, 301): 14.0% and 13.9% and 22.6% and 21.8% and 20.7% and 19.6%
Over all % TE ([2]; Table 15: 40 μM CuSO4 in MMS0C): 18.6%
Total Ind. Events ([2]; Table 15: 40 μM CuSO4 in MMS0C): 109
Over all % TE ([2]; Table 15: 80 μM CuSO4 in MMS0C): 16.6%
Total Ind. Events ([2]; Table 15: 80 μM CuSO4 in MMS0C): 98
% TE ([2]; Table 16: 40 μM CuSO4 in MMS0C): 17.5%
Transgenics ([2]; Table 16: 40 μM CuSO4 in MMS0C): 14
% TE [2, 4]: 20%
Transgenics [2, 4]: 16
% TE [2, 5]: 24% and 23.75%
Transgenics [2, 5]: 19
% TE [2, 6]: 15.0%
Transgenics [2, 6]: 12
% TE [2, 7]: 10.0%
Transgenics [2, 7]: 8
% TE [2, 8]: 13.8%
Transgenics [2, 8]: 11
% TE [2, 9]: 11.1%
Transgenics [2, 9]: 4
% TE [2, 10]: 5.6%
Transgenics [2, 10]: 2
% TE ([2]; Table 17: 0.25 μM CuSO4 in MMS0C, both experiments): 4.8%
Transgenic # ([2]; Table 17: 0.5 μM CuSO4 in MMS0C): 4 and 5
% TE ([2]; Table 17: 0.5 μM CuSO4 in MMS0C, both experiments): 4.3%
Transgenic # ([2]; Table 17: 1.0 μM CuSO4 in MMS0C): 10 and 11
% TE ([2]; Table 17: 1.0 μM CuSO4 in MMS0C, both experiments): 10.1%
% TE ([2]; Table 17: 2.0 μM CuSO4 in MMS0C, both experiments): 20.7%
TE, average ([2]; copper sulfate from 20 to 80 μM inclusive in MMS0C, Table 15): 17.6%
